Data taken from paper PMC4146677 (Bioorganic & medicinal chemistry letters, 2014).
≈ marks a conversion by molar mass, not a printed value. Where “and” joins values, the source holds several entries; their conditions need not be identical. Identical values can stand only once. Entries after “also recorded” stand apart in the source; their conditions may differ. Like-named read-outs stand apart in the source and are kept apart here. Marks after values point to notes of the source that are not given here.

Assays:
[1] = ref [6]; cited from earlier work
zebrafish larvae liver = assay: Hepatotoxicity in zebrafish larvae; type: in vivo, zebrafish (Danio rerio); conditions: 6 dpf; for Hepatotoxic effects / liver phenotype at the MTC: 2-HDA 0.8 μM, 2-ODA 1 μM, 2-TDA 1.2 μM
PfFabG [2] = target: T1, PfFabG (Plasmodium falciparum, UniProt Q8I2S7); conditions: values marked **; ref [3] (table footnote), [5]; cited from earlier work
PfFabI [3] = target: T2, PfFabI (Plasmodium falciparum, UniProt Q9BH77); conditions: values marked **, ref [3] (table footnote), [5], cited from earlier work
T2 sequence (Q9BH77 22-432): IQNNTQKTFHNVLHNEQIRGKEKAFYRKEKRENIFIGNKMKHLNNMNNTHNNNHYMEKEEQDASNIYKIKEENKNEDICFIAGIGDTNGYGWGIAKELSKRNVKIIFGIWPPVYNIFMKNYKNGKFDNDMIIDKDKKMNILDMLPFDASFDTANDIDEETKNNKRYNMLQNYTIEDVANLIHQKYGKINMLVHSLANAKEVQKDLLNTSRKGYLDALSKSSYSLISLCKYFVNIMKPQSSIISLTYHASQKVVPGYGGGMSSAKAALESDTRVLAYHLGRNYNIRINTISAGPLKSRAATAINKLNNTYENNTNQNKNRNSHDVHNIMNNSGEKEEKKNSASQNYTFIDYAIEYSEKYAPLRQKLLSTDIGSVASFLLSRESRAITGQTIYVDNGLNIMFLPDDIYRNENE

BS P. falciparum K1 [4] = conditions: K1 strain; values marked **; ref [3] (table footnote), [5]; cited from earlier work
PfFabZ [5] = target: T3, PfFabZ (Plasmodium falciparum, UniProt Q965D7); conditions: values marked **, ref [3] (table footnote), [5], cited from earlier work
T3 sequence (Q965D7 19-230): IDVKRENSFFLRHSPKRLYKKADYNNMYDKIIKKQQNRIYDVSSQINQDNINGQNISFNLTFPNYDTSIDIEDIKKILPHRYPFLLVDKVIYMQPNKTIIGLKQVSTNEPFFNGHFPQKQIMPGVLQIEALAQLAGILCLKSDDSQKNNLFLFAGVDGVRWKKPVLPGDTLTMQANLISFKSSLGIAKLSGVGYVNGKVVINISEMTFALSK

zebrafish larvae = assay: General toxicity in zebrafish larvae; conditions: treated 3 to 6 dpf, MTC at 6 dpf
[6] = tested on: LS forms of Plasmodium yoelii; conditions: ref [5], cited from earlier work
[7] = target: Leishmania topoisomerase IB enzyme; conditions: read-out: EC50 Leishmania topoisomerase IB; ref [4]; cited from earlier work
L6 cells = conditions: cited from earlier work
Leishmania donovani = conditions: read-out: EC50 against Leishmania donovani; ref [4]; cited from earlier work
BS P. falciparum K1 [8] = assay: Blood stage antiplasmodial activity, 3H-hypoxanthine method; type: cell-based; conditions: Plasmodium falciparum, K1, read-out: IC50 BS P. falciparum
LS P. berghei = assay: Liver stage P. berghei infection of Huh7 hepatoma cells; type: cell-based, Plasmodium berghei; conditions: for Effect on P. berghei infection of Huh7 cells: 48 h treatment, Fig. 1
PfFabZ [9] = target: T3, PfFabZ; assay: PfFabZ enzyme inhibition assay; type: biochemical, P. falciparum
[10] = target: PfFAS-II enzymes PfFabI, PfFabZ, PfFabG; assay: PfFAS-II enzyme inhibition, range over PfFabI, PfFabZ and PfFabG; type: biochemical, P. falciparum; conditions: range over the three enzymes
PfFabI [11] = target: T2, PfFabI; assay: PfFabI enzyme inhibition assay; type: biochemical, P. falciparum
Huh7 cells = assay: Host cell viability of Huh7 cells; type: cell-based, human; conditions: Alamar Blue; up to the highest test concentrations
PfFabG [12] = target: T1, PfFabG; assay: PfFabG enzyme inhibition assay; type: biochemical, P. falciparum
[13] = rat skeletal myoblasts, values marked *, ref [2]

In the case of 2-hexadecynoic acid [2-HDA], the “Critical micelle concentration (CMC)” value [1] is listed as greater than 90 µg/mL, the “Hepatotoxic effects / liver phenotype at the MTC” value (zebrafish larvae liver; 3 days of exposure) is listed as “non-hepatotoxic; also recorded: normal liver” and the “IC50 PfFabG” value (PfFabG [2]) is listed as 3.5** μg/ml. For the same compound, the “IC50 PfFabI” value (PfFabI [3]) was 0.38** μg/ml, the “IC50 BS P. falciparum” value (BS P. falciparum K1 [4]) was 10.4** μg/ml and the “IC50 PfFabZ” value (PfFabZ [5]) was 0.58** μg/ml. The “Maximum-tolerated concentration (MTC)” value (zebrafish larvae) was 0.20 μg/ml and 0.8 μM, the “IC50 LS P. yoelii” value ([6]; assessed by flow cytometry) was 15.3 µg/mL and the “IC50 LS P. yoelii” value ([6]; assessed by immunofluorescence activity) was 4.88 µg/mL. The EC50 [7] was 28 µM, the “IC50 L6 cell toxicity” value (L6 cells) was 85.9** μg/ml and the EC50 (Leishmania donovani) was 17.8 µM.
For `COc1cc([C@@H]2c3cc4c(cc3[C@H](O)[C@H]3COC(=O)[C@H]23)OCO4)cc(OC)c1OC` [Podophyllotoxin, reference compound], the “IC50 L6 cell toxicity” value (L6 cells; [13]) is listed as 0.02^e,* μg/ml.
Compound `CCN(CC)CCCC(C)Nc1ccnc2cc(Cl)ccc12` (stereo not drawn) [Chloroquine, reference compound] has an IC50 (BS P. falciparum K1 [8]) of 0.117 µg/mL (≈ 0.366 µM).
For `CCCCCCCCCCCCCCCC(=O)O` [PA, palmitic acid, reference compound], the “Hepatotoxic effects / liver phenotype” value (zebrafish larvae liver; 3 days of exposure, 700 μM = 179.2 μg/ml) is given as “no hepatotoxic effects; also recorded: normal liver”, the IC50 (PfFabI [3]; read-out: IC50 PfFabI) is given as greater than 390 µM and the “IC50 BS P. falciparum” value (BS P. falciparum K1 [4]) is given as 3.8** μg/ml. The IC50 (PfFabZ [5]; read-out: IC50 PfFabZ) was greater than 390 µM, the “LS activity at the highest test concentration” value (LS P. berghei; 25 μg/ml) was “devoid of any LS activity” and the “IC50 L6 cell toxicity” value (L6 cells) was 52.7** μg/ml.
In the case of `CC(=O)Nc1ccc(O)cc1` [paracetamol, reference compound], the “Hepatotoxic effects / liver phenotype” value (zebrafish larvae liver; 3 days of exposure, 300 μM, positive control) is reported as “smaller-sized liver”.
For `CCCCCCCCCCCCCCCC#CC(=O)O` [2-ODA, 2-octadecynoic acid], the “Critical micelle concentration (CMC)” value [1] is given as 50 µg/mL, the “Hepatotoxic effects / liver phenotype at the MTC” value (zebrafish larvae liver; 3 days of exposure) is given as “non-hepatotoxic; also recorded: normal liver” and the “IC50 PfFabZ” value (PfFabZ [9]) is given as 0.28 µg/mL (≈ 0.998 µM). The “IC50 values against PfFabI, PfFabZ and PfFabG (range)” value [10] was 0.28 to 0.80 µg/mL, the “IC50 PfFabI” value (PfFabI [11]) was 0.30 µg/mL (≈ 1.07 µM) and the “Effect on cell viability of Huh7 host cells” value (Huh7 cells) was “no apparent effects on cell viability”. The “IC50 PfFabG” value (PfFabG [12]) was 0.80 µg/mL (≈ 2.85 µM), the EC50 [7] was 5 µM and the “Effect on P. berghei infection of Huh7 cells” value (LS P. berghei) was “greatly impaired infection”. For the same compound, the “IC50 L6 cell toxicity” value (L6 cells; [13]) was 5.6* μg/ml and the EC50 (Leishmania donovani) was 11 µM.
In the case of `CCCCCCCCCCCC#CC(=O)O` [2-TDA, 2-tetradecynoic acid], the IC50 (BS P. falciparum K1 [8]) is reported as 27.3 µg/mL (≈ 122 µM), the “Hepatotoxic effects / liver phenotype at the MTC” value (zebrafish larvae liver; 3 days of exposure) is reported as “induced liver toxicity; also recorded: round-shaped liver with reduced fluorescence” and the “Hepatotoxic effects / liver phenotype” value (zebrafish larvae liver; 1.0 μM = 0.22 μg/ml, below the MTC) is reported as “did not induce any apparent signs of liver toxicity”. For the same compound, the “IC50 PfFabZ” value (PfFabZ [9]) was 3.5 µg/mL (≈ 15.6 µM), the “Maximum-tolerated concentration (MTC)” value (zebrafish larvae) was 0.27 µg/mL and the “Effect on cell viability of Huh7 host cells” value (Huh7 cells) was “no apparent effects on cell viability”. The “IC50 PfFabG” value (PfFabG [12]) was 5.5 µg/mL (≈ 24.5 µM), the EC50 [7] was 68 µM and the “Effect on P. berghei infection of Huh7 cells” value (LS P. berghei) was “greatly impaired infection”. For the same compound, the “IC50 L6 cell toxicity” value (L6 cells; [13]) was 9.2* μg/ml.
